Read-outs that look alike come from different tables or passages of the source.
Assays:
Type in all cases: cell-based
human 5-HT7 receptor = target: T1, human 5-HT7 receptor (Homo sapiens, UniProt P34969); assay: 5HT7 Antagonism Assay (Euroscreen FAST-0499C), cAMP HTRF; conditions: CHO-K1 cells expressing human 5-HT7, reference agonist at EC80, cAMP HTRF
T1 construct: host or cells: CHO-K1
Outline: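 CHO-K1 cells expressing human 5-HT7, 3000 per well in Krebs-Ringer HEPES with 1 mM IBMX, were exposed for 30 minutes at room temperature to compound plus reference agonist at its EC80. cAMP was read by HTRF after 1 hour; compounds were tested in duplicate from 0.3 to 10,000 nM.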

human TAAR1 receptors = target: T2, human TAAR1 receptors (Homo sapiens, UniProt Q96RJ0); assay: TAAR1 Agonism Assay: cAMP HTRF assay for Gs coupled receptor TAAR1 (Euroscreen FAST-0987C); conditions: CHO-K1 cells expressing human TAAR1, cAMP HTRF
T2 construct: host or cells: CHO-K1
T2 sequence (Q96RJ0 1-339): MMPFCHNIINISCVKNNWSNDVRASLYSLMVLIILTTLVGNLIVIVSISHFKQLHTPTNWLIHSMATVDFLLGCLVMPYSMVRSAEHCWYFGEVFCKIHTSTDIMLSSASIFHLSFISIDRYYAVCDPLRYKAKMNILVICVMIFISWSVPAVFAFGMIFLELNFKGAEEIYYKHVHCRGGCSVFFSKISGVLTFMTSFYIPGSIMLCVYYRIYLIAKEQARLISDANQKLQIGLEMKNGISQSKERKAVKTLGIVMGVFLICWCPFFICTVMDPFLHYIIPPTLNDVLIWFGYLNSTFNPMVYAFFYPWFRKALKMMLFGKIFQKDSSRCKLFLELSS
Outline: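 cAMP accumulation detected by HTRF fluorescence ratio, reagents added in lysis buffer and incubated 1 h at about room temperature. Beforehand, cells (about 3,000 per well) sat with test compound at ten concentrations from 0.3 to 10,000 nM in duplicate for roughly 30 min at about room temperature; tyramine dose-response run alongside.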

human 5-HT2A receptor = target: T3, human 5-HT2A receptor (Homo sapiens, UniProt P28223); assay: 5HT2A Antagonism Assay (Euroscreen FAST-05051), IP-One HTRF
T3 construct: host or cells: CHO-K1
Outline: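 CHO-K1 cells expressing receptor, 20,000/well, co-incubated with test compound and reference agonist at its EC80 for 60 min at 37 °C. IP1 accumulation read by HTRF after ~1 h detection at room temperature. Compounds tested in duplicate at 0.3–10,000 nM.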

[1] = 5-HT2A (IC50), CHO-K1 cells expressing human 5-HT2A, reference agonist at EC80, IP-One
[2] = read-out: 5-HT2A (IC50), CHO-K1 cells expressing human 5-HT2A, reference agonist at EC80, IP-One
[3] = CHO-K1 cells expressing human 5-HT2A, reference agonist at EC80, IP-One, read-out: 5-HT2A (IC50)

T3 sequence (P28223 whole entry): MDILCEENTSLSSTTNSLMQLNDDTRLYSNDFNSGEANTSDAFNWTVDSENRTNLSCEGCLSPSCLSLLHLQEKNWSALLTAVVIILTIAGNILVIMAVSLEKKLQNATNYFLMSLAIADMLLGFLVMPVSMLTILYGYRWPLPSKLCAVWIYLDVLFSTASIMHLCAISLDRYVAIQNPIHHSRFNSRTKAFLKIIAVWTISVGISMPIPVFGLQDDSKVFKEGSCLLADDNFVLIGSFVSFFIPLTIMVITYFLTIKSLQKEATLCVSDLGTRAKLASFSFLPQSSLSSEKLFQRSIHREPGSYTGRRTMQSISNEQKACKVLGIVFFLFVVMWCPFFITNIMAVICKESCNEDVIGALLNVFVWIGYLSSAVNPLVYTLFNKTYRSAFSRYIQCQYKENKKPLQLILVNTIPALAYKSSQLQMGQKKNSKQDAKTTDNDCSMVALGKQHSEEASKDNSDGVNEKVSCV
T1 sequence (P34969 whole entry): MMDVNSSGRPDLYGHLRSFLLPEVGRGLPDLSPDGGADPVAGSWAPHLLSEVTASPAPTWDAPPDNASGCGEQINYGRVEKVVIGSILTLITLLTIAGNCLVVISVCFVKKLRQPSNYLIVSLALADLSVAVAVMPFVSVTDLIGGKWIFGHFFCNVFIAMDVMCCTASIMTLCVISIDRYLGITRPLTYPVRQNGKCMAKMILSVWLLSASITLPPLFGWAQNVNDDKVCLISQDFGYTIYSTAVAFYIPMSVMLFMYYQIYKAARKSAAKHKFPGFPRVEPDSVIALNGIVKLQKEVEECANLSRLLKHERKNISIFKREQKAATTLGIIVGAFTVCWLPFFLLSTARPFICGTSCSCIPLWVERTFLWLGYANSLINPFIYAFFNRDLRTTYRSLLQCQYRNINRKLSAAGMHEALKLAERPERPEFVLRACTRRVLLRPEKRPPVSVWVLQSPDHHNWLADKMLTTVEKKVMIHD

Structure (SMILES): CNCC1Cc2c(F)cccc2Oc2ccccc21 (single isomer, unassigned) [Compound 82, (R*)-1-(1-fluoro-10,11-dihydrodibenzo[b,f]oxepin-10-yl)-N-methylmethanamine]
- IC50 (human 5-HT7 receptor): 1000 to 10000 nM
- EC50 (human TAAR1 receptors): < 1000 nM
- IC50 (human 5-HT2A receptor; [1]): < 1000 nM

Structure (SMILES): Cc1ccc2c(c1)Oc1cccnc1C(CN)C2 (single isomer, unassigned) [Compound 132, (S*)-(7-methyl-10,11-dihydrobenzo[6,7]oxepino[3,2-b]pyridin-11-yl)methanamine]
- IC50 (human 5-HT7 receptor): ≥ 10000 nM
- EC50 (human TAAR1 receptors): < 1000 nM
- IC50 (human 5-HT2A receptor; [1]): > 10000 nM

Structure (SMILES): NCC1Cc2ncccc2Oc2c(F)cccc21 (single isomer, unassigned) [Compound 176, (S*)-(6-fluoro-10,11-dihydrobenzo[6,7]oxepino[3,2-b]pyridin-10-yl)methanamine]
- IC50 (human 5-HT7 receptor): ≥ 10000 nM
- EC50 (human TAAR1 receptors): < 1000 nM
- IC50 (human 5-HT2A receptor; [1]): > 10000 nM

Structure (SMILES): NCC1Cc2ncccc2Oc2ccc(F)cc21 (single isomer, unassigned) [Compound 164, (S*)-(8-fluoro-10,11-dihydrobenzo[6,7]oxepino[3,2-b]pyridin-10-yl)methanamine]
- IC50 (human 5-HT7 receptor): ≥ 10000 nM
- EC50 (human TAAR1 receptors): < 1000 nM
- IC50 (human 5-HT2A receptor; [2]): 1000 to 10000 nM

Structure (SMILES): CNCC1Cc2cccc(F)c2Oc2ccccc21 (single isomer, unassigned) [Compound 87, (S*)-(4-fluoro-10,11-dihydrodibenzo[b,f]oxepin-10-yl)-N-methylmethanamine]
- IC50 (human 5-HT7 receptor): 1000 to 10000 nM
- EC50 (human TAAR1 receptors): < 1000 nM
- IC50 (human 5-HT2A receptor; [2]): < 1000 nM

Structure (SMILES): CNCC1Cc2cccnc2Oc2ccccc21 (single isomer, unassigned) [Compound 20, (S*)-1-(5,6-dihydrobenzo[6,7]oxepino[2,3-b]pyridin-6-yl)-N-methylmethanamine]
- IC50 (human 5-HT7 receptor): ≥ 10000 nM
- EC50 (human TAAR1 receptors): > 10000 nM
- IC50 (human 5-HT2A receptor; [3]): > 10000 nM

Structure (SMILES): NCC1Cc2c(F)cncc2Oc2ccccc21 (single isomer, unassigned) [Compound 153, (R*)-(4-fluoro-5,6-dihydrobenzo[6,7]oxepino[2,3-c]pyridin-6-yl)methanamine]
- IC50 (human 5-HT7 receptor): ≥ 10000 nM
- EC50 (human TAAR1 receptors): < 1000 nM
- IC50 (human 5-HT2A receptor; [1]): < 1000 nM

Structure (SMILES): CNCC1Cc2ncccc2Oc2ccc(Cl)cc21 (single isomer, unassigned) [Compound 170, (S*)-1-(8-chloro-10,11-dihydrobenzo[6,7]oxepino[3,2-b]pyridin-10-yl)-N-methylmethanamine]
- IC50 (human 5-HT7 receptor): < 1000 nM
- EC50 (human TAAR1 receptors): < 1000 nM
- IC50 (human 5-HT2A receptor; [1]): < 1000 nM

Structure (SMILES): NCC1Cc2ncccc2Oc2cccc(F)c21 (single isomer, unassigned) [Compound 156, (S*)-(9-fluoro-10,11-dihydrobenzo[6,7]oxepino[3,2-b]pyridin-10-yl)methanamine]
- IC50 (human 5-HT7 receptor): ≥ 10000 nM
- EC50 (human TAAR1 receptors): < 1000 nM
- IC50 (human 5-HT2A receptor; [1]): > 10000 nM

Structure (SMILES): CNCC1Cc2cc(C)ccc2Oc2cccnc21 (single isomer, unassigned) [Compound 130, (S*)—N-methyl-1-(8-methyl-10,11-dihydrobenzo[6,7]oxepino[3,2-b]pyridin-11-yl)methanamine]
- IC50 (human 5-HT7 receptor): 1000 to 10000 nM
- EC50 (human TAAR1 receptors): < 1000 nM
- IC50 (human 5-HT2A receptor; [1]): < 1000 nM

Structure (SMILES): NCC1Oc2ccccc2Oc2ncccc21 (single isomer, unassigned) [Compound 48, (S*)-(5H-benzo[2,3][1,4]dioxepino[5,6-b]pyridin-5-yl)methanamine]
- IC50 (human 5-HT7 receptor): ≥ 10000 nM
- EC50 (human TAAR1 receptors): 1000 to 10000 nM
- IC50 (human 5-HT2A receptor; [3]): > 10000 nM

Structure (SMILES): CNCC1Cc2ccccc2Oc2c(F)cccc21 (single isomer, unassigned) [Compound 102, (R*)-(6-fluoro-10,11-dihydrodibenzo[b,f]oxepin-10-yl)-N-methylmethanamine]
- IC50 (human 5-HT7 receptor): ≥ 10000 nM
- EC50 (human TAAR1 receptors): < 1000 nM
- IC50 (human 5-HT2A receptor; [1]): < 1000 nM

Structure (SMILES): CNCC1Cc2cc(F)ccc2Oc2ccccc21 (single isomer, unassigned) [Compound 98, (R*)-(2-fluoro-10,11-dihydrodibenzo[b,f]oxepin-10-yl)-N-methylmethanamine]
- IC50 (human 5-HT7 receptor): 1000 to 10000 nM
- EC50 (human TAAR1 receptors): < 1000 nM
- IC50 (human 5-HT2A receptor; [1]): < 1000 nM

Structure (SMILES): CNCC1Oc2ccccc2Oc2cccnc21 (single isomer, unassigned) [Compound 57, (S*)-1-(11H-benzo[2,3][1,4]dioxepino[6,5-b]pyridin-11-yl)-N-methylmethanamine]
- IC50 (human 5-HT7 receptor): ≥ 10000 nM
- EC50 (human TAAR1 receptors): < 1000 nM
- IC50 (human 5-HT2A receptor; [1]): 1000 to 10000 nM

Structure (SMILES): NCC1Oc2ccc(F)cc2Oc2ccccc21 (single isomer, unassigned) [Compound 42, (S*)-(7-fluoro-11H-dibenzo[b,e][1,4]dioxepin-11-yl)methanamine]
- IC50 (human 5-HT7 receptor): ≥ 10000 nM
- EC50 (human TAAR1 receptors): < 1000 nM
- IC50 (human 5-HT2A receptor; [2]): < 1000 nM

Structure (SMILES): NCC1Cc2ccccc2Oc2cccnc21 (single isomer, unassigned) [Compound 7, (S*)-(10,11-dihydrobenzo[6,7]oxepino[3,2-b]pyridin-11-yl)methanamine]
- IC50 (human 5-HT7 receptor): 1000 to 10000 nM
- EC50 (human TAAR1 receptors): < 1000 nM
- IC50 (human 5-HT2A receptor; [1]): > 10000 nM

Structure (SMILES): CNCC1Cc2ccccc2Oc2cc(F)ccc21 (single isomer, unassigned) [Compound 4, (S*)-1-(7-fluoro-10,11-dihydrodibenzo[b,f]oxepin-10-yl)-N-methylmethanamine]
- IC50 (human 5-HT7 receptor): 1000 to 10000 nM
- EC50 (human TAAR1 receptors): < 1000 nM
- IC50 (human 5-HT2A receptor; [2]): < 1000 nM

Structure (SMILES): CNCC1Cc2ncccc2Oc2cccc(F)c21 (single isomer, unassigned) [Compound 158, (S*)-(9-fluoro-10,11-dihydrobenzo[6,7]oxepino[3,2-b]pyridin-10-yl)-N-methylmethanamine]
- IC50 (human 5-HT7 receptor): ≥ 10000 nM
- EC50 (human TAAR1 receptors): 1000 to 10000 nM
- IC50 (human 5-HT2A receptor; [3]): > 10000 nM

Structure (SMILES): NCC1Cc2ccc(F)cc2Oc2ccccc21 (single isomer, unassigned) [Compound 89, (S*)-(3-fluoro-10,11-dihydrodibenzo[b,f]oxepin-10-yl)methanamine]
- IC50 (human 5-HT7 receptor): ≥ 10000 nM
- EC50 (human TAAR1 receptors): < 1000 nM
- IC50 (human 5-HT2A receptor; [1]): < 1000 nM

Structure (SMILES): NCC1Oc2ccc(F)cc2Oc2ccccc21 (single isomer, unassigned) [Compound 41, (R*)-(7-fluoro-11H-dibenzo[b,e][1,4]dioxepin-11-yl)methanamine]
- IC50 (human 5-HT7 receptor): 1000 to 10000 nM
- EC50 (human TAAR1 receptors): < 1000 nM
- IC50 (human 5-HT2A receptor; [1]): < 1000 nM

Structure (SMILES): NCC1Cc2ncccc2Oc2ccc(Cl)cc21 (single isomer, unassigned) [Compound 167, (R*)-(8-chloro-10,11-dihydrobenzo[6,7]oxepino[3,2-b]pyridin-10-yl)methanamine]
- IC50 (human 5-HT7 receptor): ≥ 10000 nM
- EC50 (human TAAR1 receptors): < 1000 nM
- IC50 (human 5-HT2A receptor; [1]): 1000 to 10000 nM

Structure (SMILES): CNC[C@H]1c2ncccc2Oc2ccccc2[C@@H]1C (stereo in doubt) [Compound 119, ((10R*,11S*)-10-methyl-10,11-dihydrobenzo[6,7]oxepino[3,2-b]pyridin-11-yl)-N-methylmethanamine]
- IC50 (human 5-HT7 receptor): ≥ 10000 nM
- EC50 (human TAAR1 receptors): 1000 to 10000 nM
- IC50 (human 5-HT2A receptor; [1]): 1000 to 10000 nM

Structure (SMILES): NCC1Cc2ccccc2Oc2cccnc21 (single isomer, unassigned) [Compound 8, (R*)-(10,11-dihydrobenzo[6,7]oxepino[3,2-b]pyridin-11-yl)methanamine]
- IC50 (human 5-HT7 receptor): ≥ 10000 nM
- EC50 (human TAAR1 receptors): < 1000 nM
- IC50 (human 5-HT2A receptor; [2]): > 10000 nM

Structure (SMILES): NCC1Cc2cccc(F)c2Oc2ccccc21 (single isomer, unassigned) [Compound 85, (S*)-(4-fluoro-10,11-dihydrodibenzo[b,f]oxepin-10-yl)methanamine]
- IC50 (human 5-HT7 receptor): ≥ 10000 nM
- EC50 (human TAAR1 receptors): < 1000 nM
- IC50 (human 5-HT2A receptor; [1]): 1000 to 10000 nM

Structure (SMILES): CNCC1Cc2cc(Cl)ccc2Oc2cccnc21 (single isomer, unassigned) [Compound 123, (R*)-(8-chloro-10,11-dihydrobenzo[6,7]oxepino[3,2-b]pyridin-11-yl)-N-methylmethanamine]
- IC50 (human 5-HT7 receptor): < 1000 nM
- EC50 (human TAAR1 receptors): < 1000 nM
- IC50 (human 5-HT2A receptor; [2]): < 1000 nM

Structure (SMILES): NCC1Oc2ccccc2Cc2ccccc21 (stereo not drawn) [Compound 77, (6,11-dihydrodibenzo[b,e]oxepin-6-yl)methanamine]
- IC50 (human 5-HT7 receptor): ≥ 10000 nM
- EC50 (human TAAR1 receptors): < 1000 nM
- IC50 (human 5-HT2A receptor; [3]): 1000 to 10000 nM

Structure (SMILES): NCC1Cc2cccnc2Oc2ccccc21 (single isomer, unassigned) [Compound 18, (S*)-(5,6-dihydrobenzo[6,7]oxepino[2,3-b]pyridin-6-yl)methanamine]
- IC50 (human 5-HT7 receptor): ≥ 10000 nM
- EC50 (human TAAR1 receptors): > 10000 nM
- IC50 (human 5-HT2A receptor; [1]): > 10000 nM

Structure (SMILES): CNC[C@H]1c2ncccc2Oc2ccccc2[C@H]1C (stereo in doubt) [Compound 116, ((10S*,11S*)-10-methyl-10,11-dihydrobenzo[6,7]oxepino[3,2-b]pyridin-11-yl)-N-methylmethanamine]
- IC50 (human 5-HT7 receptor): ≥ 10000 nM
- EC50 (human TAAR1 receptors): < 1000 nM
- IC50 (human 5-HT2A receptor; [1]): 1000 to 10000 nM

Structure (SMILES): NCC1Cc2cccc(F)c2Oc2ccccc21 (single isomer, unassigned) [Compound 84, (R*)-(4-fluoro-10,11-dihydrodibenzo[b,f]oxepin-10-yl)methanamine]
- IC50 (human 5-HT7 receptor): ≥ 10000 nM
- EC50 (human TAAR1 receptors): < 1000 nM
- IC50 (human 5-HT2A receptor; [1]): > 10000 nM

Source: patent publication US20240245658A1, “TAAR1 AND SEROTONIN MODULATORS, AND PHARMACEUTICAL COMPOSITIONS, AND METHODS OF USE THEREOF” (Sunovion Pharmaceuticals Inc., priority 2021, published 2024)
